Test results reported in patent US7566713B2, “Immuno inhibitory heterocyclic compounds” (Medigene Limited, priority 2004, dated 2009).
pEC50: −log10 of the molar value.

Molecular target: T1, CD80-CD28 interaction (Homo sapiens, UniProt P33681)
T1 sequence (P33681 35-242 limits assumed): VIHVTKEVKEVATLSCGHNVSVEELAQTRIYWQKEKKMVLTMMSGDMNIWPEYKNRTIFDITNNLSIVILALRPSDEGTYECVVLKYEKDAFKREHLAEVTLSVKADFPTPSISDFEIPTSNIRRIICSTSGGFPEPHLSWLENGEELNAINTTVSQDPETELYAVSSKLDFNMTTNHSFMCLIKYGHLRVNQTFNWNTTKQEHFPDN
Assay: cell free Homogenous Time Resolved Fluorescence (TRFret) assay, inhibition of the CD80-CD28 interaction
Assay type: binding
Conditions: HTRF assay; concentration series 100 μM-1.7 nM; 4 hours at room temperature
Experimental: The examples described above were tested in a cell free Homogenous Time Resolved Fluorescence (TRFret) assay to determine their activity as inhibitors of the CD80-CD28 interaction.
In the assay, europium and allophycocyanin (APC) are associated with CD28 and CD80 indirectly (through antibody linkers) to form a complex, which brings the europium and APC into close proximity to generate a signal. The complex comprises the following six proteins: fluorescent label 1, linker antibody 1, CD28 fusion protein, CD80 fusion protein, linker antibody 2, and fluorescent label 2. The table below describes these reagents in greater detail.
On formation of the complex, europium and APC are brought into proximity and a signal is generated.
Non-specific interaction was measured by substituting a mouse Fab fragment (C215) for the CD80 mouse Fab fragment fusion protein (1.9 μg/ml). The assay was carried out in black 384 well plates in a final volume of 30 μl. Assay buffer: 50 mM Tris-HCl, 150 mM NaCl pH7.8, containing 0.1% BSA (w/v) added just prior to use.
Compounds were added to the above reagents in a concentration series ranging between 100 μM-1.7 nM. The reaction was incubated for 4 hours at room temperature. Dual measurements were made using a Wallac Victor 1420 Multilabel Counter. First measurement: excitation 340 nm, emission 665 nm, delay 50 μs, window time 200 μs. second measurement: excitation 340 nm, emission 615 nm, delay 50 μs, window time 200 μs. Counts were automatically corrected for fluorescence crossover, quenching and background.

SMILES	pEC50
O=C(O)c1ccc(-n2[nH]c3c4c(nnc3c2=O)CCCC4)cc1 [Example 1]	< 5.00
CN(C)CCCNC(=O)c1ccc(-n2[nH]c3c4c(nnc3c2=O)CCCC4)cc1 [Example 2, N-(3-Dimethylamino-propyl)-4-(3-oxo-1,3,6,7,8,9-hexahydro-pyrazolo[4,3-c]cinnolin-2-yl)-benzamide]	7.20
O=C(NCC(F)F)c1ccc(-n2[nH]c3c4c(nnc3c2=O)CCCC4)cc1 [Example 3, N-(2,2-Difluoro-ethyl)-4-(3-oxo-1 ,3,6,7,8,9-hexahydro-pyrazolo[4,3-c]cinnolin-2-yl)-benzamide]	6.10
O=C(NCCCNC1CCCCC1)c1ccc(-n2[nH]c3c4c(nnc3c2=O)CCCC4)cc1 [Example 4, N-(3-Cyclohexylamino-propyl)-4-(3-oxo-1 ,3,6,7,8,9-hexahydro-pyrazolo[4,3-c]cinnolin-2-yl)-benzamide]	7.00
O=C(NCCCCN1CCCC1)c1ccc(-n2[nH]c3c4c(nnc3c2=O)CCCC4)cc1 [Example 5, 4-(3-Oxo-1,3,6,7,8,9-hexahydro-pyrazolo[4,3-c]cinnolin-2-yl)-N-(4-pyrrolidin-1-yl-butyl)-benzamide]	7.22
CN1C(C)(C)CC(NC(=O)c2ccc(-n3[nH]c4c5c(nnc4c3=O)CCCC5)cc2)CC1(C)C [Example 6, 4-(3-Oxo-1,3,6,7,8,9-hexahydro-pyrazolo[4,3-c]cinnolin-2-yl)-N-(1,2,2,6,6-pentamethyl-piperidin-4-yl)-benzamide]	7.03
